Data: patent US8022090B2, “Vitamin C composition stabilized with cationic material, anionic material and caffeic acid derivative” (The Faceshop Korea Co., Ltd, priority 2007, dated 2011)

Experiment: solubility measurement in purified water and ethanol
Conditions: for solubility: ethanol (25° C.); for density up to which dissolved: 25° C.

- solubility (density 1 mg/mL): dissolved
- solubility (density 10 mg/mL): dissolved
- density up to which dissolved (ethanol): ≥ 10 mg/mL
- density up to which dissolved (purified water): not dissolved
SMILES: O=C(O)/C=C/c1ccc(O)c(O)c1 [caffeic acid]
